In general, Ki refers to the dissociation constant of the complex between target and ligand, obtained from inhibition or displacement. A word on the IC50: it is the concentration at which inhibition is half-maximal.

The target of data set [1] is BACE1. Particulars: cited from earlier work.
The nature of data set [2]: PAMPA-BBB, literature. As to conditions: from log BB = 0.612 × log Pe + 3.206 (ref 49). The format is in vitro ADME.
For data set [3] the following is noted: pharmacokinetic descriptor of the brain ref 53; cited from earlier work.
For data set [4], the target named is T1, Electric eel AChE (Electrophorus electricus, UniProt O42275).
T1 construct: purchased Sigma-Aldrich Co
The data set is described as follows: In vitro cholinesterase enzyme assay (Ellman), AChE. The format is biochemical. An excerpt: BACE1 (human recombinant β-secretase) ([…]) and the BACE1 FRET (fluorescence resonance energy transfer) assay kit Red were purchased from ThermoFisher Scientific (P2985; Waltham, MA, USA). […] For the cell culture experiment, Dulbecco’s modified Eagle’s medium (DMEM), Opti-MEM, fetal bovine serum (FBS), and penicillin/streptomycin were obtained from Capricorn Scientific (Ebsdorfergrund, Germany). β-secretase inhibitor III (β-SI) was purchased from Calbiochem (Darmstadt, Germany). The protease inhibitor mixture (a mixture of AEBSF, pepstatin A, E-64, bestain, leupeptin, and aprotinin) was purchased from Sigma-Aldrich (St. Louis, MO, USA). Enzyme-linked immunosorbent assay (ELISA) kits for Aβ40 and Aβ42 were obtained from IBL (Kunma, Japan). All chemicals and solvents used were reagent grade, purchased from commercial sources, and used as received.
The inhibitory activities of pterosin derivatives against cholinesterases were measured using the method developed by Ellman et al.[32]. The reaction mixture contained 140 μL of sodium phosphate buffer (pH 8.0), 20 μL of test sample solution (final concentration of the compound 100 μM), and 20 μL of AChE or BChE solution, mixed and incubated for 15 min at room temperature. […] The reactions were initiated following the addition of 10 μL of DTNB and 10 μL of acetyl thiocholine iodide for the AChE assay or butyryl thiocholine chloride for the BChE assay in 96-well microplates, which were incubated for 15 min.
Background: Ellman's reagent forms a yellow product with free thiols.

The subject of data set [5] is dementia animal models. As to conditions: 5 mg/kg i.p. ref 53; cited from earlier work.
Data set [6] relates to aged triple transgenic mouse models of AD (3xTg-AD). As to conditions: 25 mg/kg i.p. every 48 h for 3 months, mice 21–24 months old ref 48; cited from earlier work.
In data set [7] the test system is BChE. The arrangement: method as in PMID 18274286. Particulars: cited from earlier work.
On the set-up of data set [8]: method as in PMID 23565574. Particulars: PAMPA-BBB ref 49; cited from earlier work.
Data set [9] concerns AChE. As to conditions: cited from earlier work.
Data set [10] relates to mouse models of diabetes. Further details: method as in PMID 23069626. Particulars: cited from earlier work.
For data set [11], the system named is mouse model of osteoarthritis. Further details: method as in PMID 27009967. Particulars: 15 μL of 900 μM intra-articular, three times per week, 8–13 weeks ref 28; cited from earlier work.
Where [12] appears, read: oral 100 mg/kg/day for 4 weeks ref 29, 30.

T1 sequence (O42275 24-633): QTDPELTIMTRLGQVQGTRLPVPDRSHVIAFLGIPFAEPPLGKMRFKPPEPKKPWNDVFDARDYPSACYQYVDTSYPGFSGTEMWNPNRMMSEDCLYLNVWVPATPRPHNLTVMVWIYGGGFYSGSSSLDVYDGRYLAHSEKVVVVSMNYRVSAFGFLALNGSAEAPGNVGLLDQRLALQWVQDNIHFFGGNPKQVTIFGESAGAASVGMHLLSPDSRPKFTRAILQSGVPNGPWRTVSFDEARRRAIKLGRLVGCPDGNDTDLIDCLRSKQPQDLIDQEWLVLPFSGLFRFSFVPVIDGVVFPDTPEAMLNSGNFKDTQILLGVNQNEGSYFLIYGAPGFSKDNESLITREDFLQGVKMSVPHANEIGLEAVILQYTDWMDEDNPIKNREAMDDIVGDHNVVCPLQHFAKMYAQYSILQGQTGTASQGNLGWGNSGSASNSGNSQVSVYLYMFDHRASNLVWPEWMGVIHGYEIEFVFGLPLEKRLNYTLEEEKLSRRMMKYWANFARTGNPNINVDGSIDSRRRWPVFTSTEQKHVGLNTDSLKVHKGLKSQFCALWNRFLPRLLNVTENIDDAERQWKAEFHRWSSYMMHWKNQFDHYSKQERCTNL

Turning to `CC#Cc1cncc(-c2ccc3c(c2)[C@@]2(N=C(C)C(N)=N2)[C@]2(CC[C@H](OC)CC2)C3)c1` [AZD3293], the Ki in data set [1] is 0.4 nM.

For `COc1ccc2cc3[n+](cc2c1OC)CCc1cc2c(cc1-3)OCO2` [Berberine, berberine], the “log Pe corresponding to log BB” value in [2] is −5.8. Also, the “log BB” value in data set [3] was −0.35. Further, inhibition in data set [4] was half-maximal at 390 ± 10 nM (IC50). In addition, in data set [5], the Cognitive effect entry is “procognitive and antiamnestic properties”. In addition, the BACE1-inhibitory activity result in data set [1] was “lacks”.

Regarding `O=c1c(O)c(-c2ccc(O)c(O)c2)oc2cc(O)cc(O)c12` [Quercetin, quercetin], in data set [6], the “Effect on AD pathology” value was “effectively ameliorated AD pathology and tauopathy”. Also, the “Influence on BChE activity” value in [7] is “negligible influence”. Also, the “log Pe” value in data set [8] is reported as “approximately −7”. In data set [9], the IC50 was […].

For the molecule `Cc1cc2c(c(C)c1CCO)C(=O)C(C)(CO)C2` (stereo not drawn) [pterosin A], the Oral bioavailability entry in data set [10] (diabetes animal experiment ref 29, 30) was “good oral bioavailability”. Besides, in data set [10] (setting [12]), the Adverse effects entry is “no significant adverse effects”; the “Effect on glucose intolerance and insulin resistance” value is “effectively improving glucose intolerance and insulin resistance”.

For the molecule `Cc1cc2c(c(C)c1CCO)C(=O)[C@H](C)C2` [pterosin B], in data set [11], the Adverse effects result was “without adverse effects” and the Effect on osteoarthritis entry is reported as “ameliorating osteoarthritis”.

These data come from PMC6372667 (Experimental & Molecular Medicine, 2019).
